One assay concerns Escherichian coli. Conditions: 20 h.
Assay [1] concerns Staphilococcus aureus 007. Conditions: 20 h.
In the next assay the test system is gram negative bacteria. Conditions: for antimicrobial activity against gram negative bacteria: in words, data not shown.
The test system of assay [2] is Staphilococcus.aureus A170. Conditions: single peptide; MIC100, MH broth, about 10^6 CFU/ml, 37°C 20 h, absorbance 600 nm, triplicate.
A further assay relates to Listeria monocytogenes. To be noted: 20 h.
The subject of assay [3] is Staphilococcus .aureus A172. To be noted: 20 h.
Assay [4] relates to Salmonella enterica serovar Paratyphi. The assay can be described thus: Antibacterial activity, MIC100 broth dilution. Format: cell-based. Conditions: single peptide; MIC100, MH broth, about 10^6 CFU/ml, 37°C 20 h, absorbance 600 nm, triplicate. Background: In broth dilution the organism is exposed to a series of concentrations in liquid medium.
The subject of the next assay is gram positive bacteria. The assay can be described thus: Antibacterial activity, summary for gram positive bacteria. Format: cell-based. To be noted: for antimicrobial activity against gram positive bacteria: in words, approximately to the same extent as temporin A, data not shown. The source says: The study included the following species: Staphylococcus aureus (isolate A170, A172, 007), Listeria monocytogenes, Salmonella enterica serovar Paratyphi, Salmonella enterica serovar Typhimurium, Escherichia coli. Isolates were obtained from patients hospitalized at the Medical School of the University of Naples. Specimen were confirmed by PCR assay of the genes sea (S. aureus), MonoA (L. monocytogenes), abe (S. enterica serovar Paratyphi), FliC (S. enterica serovar Typhimurium), sat (E. coli) [20]–[23]. Bacteria were grown at 37°C in TSB medium (S. aureus and L. monocytogenes) or LB medium (the remaining bacterial species) (Difco, Becton Dickinson, Sparks, MD), harvested while in exponential phase (OD600 nm; 0-6-0.8), centrifuged (8×10^3 g for 10 min), washed with saline (0.15 M NaCl) and resuspended in saline (10^6–10^7 CFU/ml).
Bacteria were grown at 37°C in TSB (S. aureus and L. monocytogenes) or in LB medium (the remaining bacterial species), harvested while in exponential phase (OD600 nm; 0-6-0.8), centrifuged (8×10^3 g for 10 min), washed with saline, resuspended in Muller Hinton (MH) broth at the concentration of approximately 10^6 CFU/ml and distributed, in triplicate, into 96 well plates (60 µl/well), mixed with twofold dilutions of the antimicrobial (TA: 5–100 µg, 40 µl/well; TB-YK: 4–100 µg, 40 µl/well; TA 5 µg+TB-YK 8 µg, 40 µl/well and incubated at 37°C for 20 h. The minimal concentration of the antimicrobial at which 100% inhibition of growth was observed (MIC100) was determined by measuring the absorbance at 600 nm (Biorad microplate reader model 680, Hercules, CA). The antibacterial activity was measured by spotting an aliquot (10 µl) of each well on TSA or LB agar and counting the CFU. A potential synergism between temporins was evaluated by adding combinations of two temporins in a serial twofold dilutions (TA: 5–100 µg;TB-YK: 4–100 µg; 40 µl/well) to wells containing 10^5 CFU/well in 60 µl. The presence of synergism was established as described.

No end group written: not given here.

What is called MIC is the smallest concentration in the dilution series that meets the test's criterion for growth inhibition. Consider FLPLIGRVLSGIL-NH2 [TA, temporin A], for which the MIC was 125 µg/mL in the assay with Escherichian coli; 10 µg/mL in assay [1]; 125 to 400 µg/mL in the assay with gram negative bacteria (20 h); 10 µg/mL in assay [2]; 30 µg/mL in the assay on Listeria monocytogenes; 20 µg/mL in assay [3]. In addition, the values for the MIC (in assay [4]; in the assay with gram positive bacteria (range over the gram positive bacteria tested)) were 400 µg/mL and 10 to 30 µg/mL, respectively.
With “H-LLPI VGNLLKSLL- NH2 [TB, temporin B, synthetic temporin B in its native form]”, the “antimicrobial activity against gram negative bacteria” value in the assay on gram negative bacteria is “totally inactive”. Moreover, the “antimicrobial activity against gram positive bacteria” value in the assay on gram positive bacteria is listed as “active”.
For “H-YLLPI VGNLLKSLL- NH2 [TB-Y, temporin B with one extra tyrosine residue at the N-terminus]” the same measures were “totally inactive” and “active”.
